Source: patent US6492426B1, “Use of 1-aminoindan derivatives for treatment of mania in bipolar mood disorder” (priority 1999, dated 2002)
Values joined by “and” are separate entries in the source; they are usually repeats but may differ in a detail not shown here. Equal values may be shown once.

Tested on: amphetamine-induced hyperactivity in rats
Assay: amphetamine-induced hyperactivity model of mania in rats (automated activity monitors)
Assay type: in vivo, Sprague Dawley rats
Conditions: for Effect on amphetamine-induced locomotor activity versus control (ANOVA) / Effect on amphetamine-induced vertical activity versus control (ANOVA) / Effect on activity levels of rats (summary): 75 mg/kg IP; for Effect on amphetamine-induced locomotor activity versus control (ANOVA) / Effect on amphetamine-induced vertical activity versus control (ANOVA) / Locomotor activity, 10 min: 19 h and 3 h before testing; for Effect on amphetamine-induced locomotor activity versus control (ANOVA) / Effect on amphetamine-induced vertical activity versus control (ANOVA) / Effect on activity levels of rats (summary) / Anti-manic potential from the tested model (conclusion): result in words; for Effect on activity levels of rats (summary): amphetamine-treated rats; for Anti-manic potential from the tested model (conclusion): based on the tested model and doses; for Locomotor activity, 20 min, mean / Vertical activity, 20 min, mean / Locomotor activity, 30 min, mean / Vertical activity, 30 min, mean / Locomotor activity, 10 min, mean / Vertical activity, 10 min, mean / Locomotor activity, 20-10 min, mean / Vertical activity, 20-10 min, mean / Locomotor activity, 30-20 min, mean / Vertical activity, 30-20 min, mean: group mean n=10; for Locomotor activity, 20 min, mean / Vertical activity, 20 min, mean / Locomotor activity, 30 min, mean / Vertical activity, 30 min, mean / Locomotor activity, 10 min, mean / Vertical activity, 10 min, mean / Locomotor activity, 20-10 min, mean / Vertical activity, 20-10 min, mean / Locomotor activity, 30-20 min, mean / Vertical activity, 30-20 min, mean / Locomotor activity, 10 min / Locomotor activity, 20 min / Vertical activity, 20 min / Locomotor activity, 30 min / Vertical activity, 30 min / Vertical activity, 10 min / Locomotor activity, 20-10 min / Vertical activity, 20-10 min / Locomotor activity, 30-20 min / Vertical activity, 30-20 min: 75 mg/kg IP twice, amphetamine 0.5 mg/kg s.c.; for Locomotor activity, 20 min, mean / Vertical activity, 20 min, mean / Locomotor activity, 20 min / Vertical activity, 20 min: cumulative to 20 min; for Locomotor activity, 30 min, mean / Vertical activity, 30 min, mean / Locomotor activity, 30 min / Vertical activity, 30 min: cumulative to 30 min; for Locomotor activity, 10 min, mean / Vertical activity, 10 min, mean / Locomotor activity, 10 min / Vertical activity, 10 min: first 10 min; for Locomotor activity, 20-10 min, mean / Vertical activity, 20-10 min, mean / Locomotor activity, 20-10 min / Vertical activity, 20-10 min: second 10 min interval; for Locomotor activity, 30-20 min, mean / Vertical activity, 30-20 min, mean / Locomotor activity, 30-20 min / Vertical activity, 30-20 min: third 10 min interval; for Locomotor activity, 10 min / Locomotor activity, 20 min / Vertical activity, 20 min / Locomotor activity, 30 min / Vertical activity, 30 min / Vertical activity, 10 min / Locomotor activity, 20-10 min / Vertical activity, 20-10 min / Locomotor activity, 30-20 min / Vertical activity, 30-20 min: individual rat; for Locomotor activity, 20-10 min / Vertical activity, 20-10 min / Locomotor activity, 30-20 min / Vertical activity, 30-20 min: non cumulative
Method: Evaluation of possible anti-bipolar effects of compounds 1 to 4 was effected by an amphetamine-induced hyperactivity model of mania in rats. Each of the compounds was examined in a separate experiment and compared with a control group, treated with the same dose of amphetamine.
Twenty Sprague Dawley rats, weighing 200-250 g served for each of the four (4) experiments. Rats were housed in a colony room with constant temperature (22° C.), 12 h light/dark cycle and free access to food and water. Each experiment consisted of two groups (n=10 per group), one group was treated with the compound (1 to 4) and the other with vehicle solution. In experiments 1-4, the drugs were administered intraperitoneally (IP). All experimental procedures were conducted during the light phase of the light/dark cycle.
Amphetamine (0.5 mg/kg, sub-cutaneous (s.c.), diluted in de-ionized water) was injected into all rats (both groups of each experiment) immediately prior to behavioral testing. In experiments 1 to 4, compounds (R)-N-acetyl aminoindan (1); (S)-N-indanyl glycinamide HCl (2); (rac)-N-(2-aminoacetyl)-1-aminoindan HCl (3); and (S)-N-formyl aminoindan (4) were injected twice intraperitoneally (IP) at a dose of 75 mg/kg, 19 h and 3 h prior to behavioral testing in experiments. All compounds were suspended in a 5% methyl cellulose solution. The vehicle solution was administered to the control animals.
Immediately after amphetamine injection, rats were placed in automated activity monitors and their activity levels were scored every 10 minutes in the 30 minute time span for experiments 1 to 4. Activity scores included separate measurements of horizontal (locomotion) and of vertical (rearing) activity.
Repeated ANOVA measurements were used to examine the effects of compounds 1 to 4 on locomotor and on vertical activity. One factor measured the treatment of the rats using compounds 1 to 4 or the control vehicle; the repeated measure factor was time (three 10 minute intervals). Post hoc LSD (least significant difference) tests were used to determine whether significant differences occurred in different time periods, where relevant.

Row | SMILES | Effect on amphetamine-induced locomotor activity versus control (ANOVA) | Effect on amphetamine-induced vertical activity versus control (ANOVA) | Effect on activity levels of rats (summary) | Anti-manic potential from the tested model (conclusion) | Locomotor activity, 20 min, mean | Vertical activity, 20 min, mean | Locomotor activity, 30 min, mean | Vertical activity, 30 min, mean | Locomotor activity, 10 min, mean | Vertical activity, 10 min, mean | Locomotor activity, 20-10 min, mean | Vertical activity, 20-10 min, mean | Locomotor activity, 30-20 min, mean | Vertical activity, 30-20 min, mean | Locomotor activity, 10 min (HCl) | Locomotor activity, 20 min (HCl) | Vertical activity, 20 min (HCl) | Locomotor activity, 30 min (HCl) | Vertical activity, 30 min (HCl) | Vertical activity, 10 min (HCl) | other results
1 | Cl.NCC(=O)NC1CCc2ccccc21 (racemic) [Compound 3, (rac)-N-(2-aminoacetyl)-1-aminoindan HCl] | significantly reduced locomotor activity | similar, albeit non-significant, effect | reduced the activity levels | show anti-manic potential | 1037 counts | 32 counts | 1397.4 counts | 48.3 counts | 494.4 counts | 23.1 counts | 542.6 counts | 8.9 counts | 360.4 counts | 16.3 counts | 379 counts and 525 counts and 338 counts and 553 counts and 449 counts and 349 counts and 584 counts and 614 counts and 537 counts and 616 counts | 1214 counts and 1196 counts and 621 counts and 1303 counts and 862 counts and 663 counts and 1104 counts and 1349 counts and 1095 counts and 963 counts | 0 counts and 33 counts and 11 counts and 91 counts and 26 counts and 5 counts and 66 counts (2×) and 1 counts and 21 counts | 1678 counts and 1507 counts and 691 counts and 1619 counts and 1112 counts and 917 counts and 1576 counts and 1810 counts and 1758 counts and 1306 counts | 1 counts and 35 counts (2×) and 11 counts and 101 counts and 5 counts and 75 counts and 100 counts and 38 counts and 82 counts | 0 counts and 17 counts and 7 counts and 27 counts and 11 counts and 5 counts and 36 counts and 58 counts and 16 counts and 54 counts | Locomotor activity, 20-10 min (HCl): 835 counts and 671 counts and 283 counts and 750 counts and 413 counts and 314 counts and 520 counts and 735 counts and 558 counts and 347 counts; Vertical activity, 20-10 min (HCl): 0 counts (2×) and 16 counts and 4 counts and 64 counts and 15 counts and 30 counts and −57 counts and 5 counts and 12 counts; Locomotor activity, 30-20 min (HCl): 464 counts and 311 counts and 70 counts and 316 counts and 250 counts and 254 counts and 472 counts and 461 counts and 663 counts and 343 counts; Vertical activity, 30-20 min (HCl): 1 counts and 2 counts and 0 counts (2×) and 10 counts and 9 counts (2×) and 99 counts and 17 counts and 16 counts
2 | CC(=O)N[C@@H]1CCc2ccccc21 [Compound 1, (R)-N-acetyl aminoindan] | significantly reduced locomotion |  | reduced the activity levels | show anti-manic potential | 945.8 counts | 22.5 counts | 1395.6 counts | 33.8 counts | 545.3 counts | 14.2 counts | 400.5 counts | 8.3 counts | 449.8 counts | 11.3 counts |  |  |  |  |  |  | Locomotor activity, 10 min: 600 counts and 448 counts and 718 counts and 740 counts and 570 counts and 426 counts and 395 counts and 462 counts and 681 counts and 413 counts; Locomotor activity, 20 min: 930 counts and 677 counts and 1125 counts and 1026 counts and 1147 counts and 802 counts and 800 counts and 794 counts and 1361 counts and 796 counts; Vertical activity, 20 min: 34 counts and 12 counts (2×) and 18 counts and 29 counts and 37 counts and 28 counts and 11 counts and 39 counts and 5 counts; Locomotor activity, 30 min: 1436 counts and 1027 counts and 1653 counts and 1317 counts and 1776 counts and 1230 counts and 1053 counts and 1150 counts and 2064 counts and 1250 counts; Vertical activity, 30 min: 62 counts and 18 counts and 20 counts and 31 counts and 53 counts and 38 counts and 12 counts and 21 counts and 76 counts and 7 counts; Vertical activity, 10 min: 27 counts and 9 counts and 16 counts (2×) and 29 counts and 20 counts and 5 counts and 10 counts and 6 counts and 4 counts; Locomotor activity, 20-10 min: 330 counts and 229 counts and 407 counts and 286 counts and 577 counts and 376 counts and 405 counts and 332 counts and 680 counts and 383 counts; Vertical activity, 20-10 min: 7 counts (2×) and 3 counts and 2 counts and 0 counts and 17 counts and 12 counts and 1 counts (2×) and 33 counts; Locomotor activity, 30-20 min: 506 counts and 350 counts and 528 counts and 291 counts and 629 counts and 428 counts and 253 counts and 356 counts and 703 counts and 454 counts; Vertical activity, 30-20 min: 28 counts and 6 counts and 2 counts (3×) and 16 counts and 10 counts (2×) and 0 counts and 37 counts
3 | Cl.NCC(=O)N[C@H]1CCc2ccccc21 [Compound 2, (S)-N-indanyl glycinamide HCl] | did not have a significant effect | significantly increased the level of vertical activity | surprisingly increased activity | does not show anti-manic potential | 1277.9 counts | 96.3 counts | 1740.5 counts | 125 counts | 626 counts | 49.3 counts | 651.9 counts | 47 counts | 462.6 counts | 28.7 counts | 531 counts and 603 counts and 604 counts and 619 counts and 663 counts (2×) and 616 counts and 670 counts and 643 counts and 648 counts | 1096 counts and 1197 counts and 1334 counts and 1140 counts and 1525 counts and 1508 counts and 1366 counts and 1272 counts and 1325 counts and 1016 counts | 51 counts and 133 counts and 62 counts and 84 counts and 101 counts and 236 counts and 118 counts and 50 counts and 70 counts and 58 counts | 1547 counts and 1606 counts and 1964 counts and 1598 counts and 1908 counts and 2038 counts and 1670 counts and 1608 counts and 2047 counts and 1419 counts | 75 counts and 168 counts and 98 counts and 96 counts and 104 counts and 321 counts and 126 counts and 58 counts and 116 counts and 88 counts | 32 counts and 82 counts and 31 counts and 38 counts (3×) and 95 counts and 66 counts and 30 counts and 43 counts | Locomotor activity, 20-10 min (HCl): 565 counts and 594 counts and 730 counts and 521 counts and 862 counts and 892 counts and 696 counts and 629 counts and 677 counts and 353 counts; Vertical activity, 20-10 min (HCl): 19 counts and 51 counts and 31 counts and 46 counts and 63 counts and 141 counts and 52 counts and 12 counts and 40 counts and 15 counts; Locomotor activity, 30-20 min (HCl): 451 counts and 409 counts and 630 counts and 458 counts and 383 counts and 530 counts and 304 counts and 336 counts and 722 counts and 403 counts; Vertical activity, 30-20 min (HCl): 24 counts and 35 counts and 36 counts and 12 counts and 3 counts and 85 counts and 8 counts (2×) and 46 counts and 30 counts
